# Measurements from PMC7247818, “Demonstration of Binding Induced Structural Plasticity in a SH2 Domain” (Frontiers in Molecular Biosciences, 2020).
# Where a SMILES comes first, the peptide text is derived from it.
# Key:
# [1] = target: T1, N-SH2 domain of PI3K, V101A variant (Homo sapiens, UniProt P27986, V422A); experiment: Stopped-flow binding kinetics, N-SH2 V101A; details: 10°C
# T1 construct: made in house
# Description: (§1) N-SH2 wild-type and all the site-directed variants were expressed and purified as described previously ([Visconti et al., 2019]). All the mutants were obtained using a QuickChange Lightning Site-Directed Mutagenesis kit (Agilent technologies), accordingly to manufacturer instructions. Peptides with sequence TNSEDNpYVPMNPG mimicking wild-type Gab2 and TNSEDNpYVPANPG mimicking the M457A variant of Gab2 were purchased from GenScript Biotech Corporation.
# (§2) Binding kinetics experiments were performed using a single-mixing SX-18 stopped-flow instrument (Applied Photophysics); all binding experiments were conducted in 50 mM Hepes pH 7.4 300 mM NaCl at 10°C. Excitation was at 280 nm and emission was collected using a […] cut-off glass filter. Pseudo-first order binding experiments were performed mixing a constant concentration of dansylated Gab2_448–460 and Gab2_448–460 M457A (1 μM) vs. N-SH2 wt and its mutants at concentrations ranging from […]. For each N-SH2 concentration, usually 5 individual traces were averaged and in all cases the fluorescence time courses obtained was satisfactorily fitted by using a single exponential equation.
# (§3) One of the aims of this study is to depict the molecular details of the interaction between the N-SH2 domain of PI3K and Gab2. A powerful strategy to achieve this goal relies on perturbing the system by producing conservative site-directed variants while monitoring the effect of mutations on the association and dissociation rate constants between the interacting partners (kon and koff respectively). Thus, we designed and successfully produced 21 site-directed variants of the N-SH2 domain and challenged them vs. a peptide mimicking the region of Gab2 ranging from residue 448–460 (Gab2_448–460), containing the pY-X-X-M motif that is specifically recognized by the N-SH2 domain ([Waksman et al., 1992]; [Songyang et al., 1993]). The choise of mutations was designed in analogy to phi-value analysis methodology in protein folding studies ([Fersht and Sato, 2004]). […] To monitor binding by fluorescence, a dansyl group was added at the N-terminus of the peptide. The binding reaction was monitored by stopped-flow experiments following the change in FRET signal, taking advantage of the two Trp residues on the N-SH2 domain in positions 12 and 14 as fluorescence donor and the dansyl group on Gab2_448–460 as acceptor. The experiments were performed in pseudo-first order conditions with Gab2_448–460 at fixed concentration of 1 μM rapidly mixed vs. large excess of N-SH2 wt and its variants, ranging from 4 to 14 μM, in buffer Hepes 50 mM, NaCl 300 mM, pH 7.4, at 10°C.
# (§4) with kon being the slope of the line and koff the intercept with the y-axis. Since indirect calculation of koff obtained by extrapolation is associated with high experimental error, we performed displacement experiments to directly measure koff by challenging a pre-incubated complex of dansylated Gab2_448–460 and N-SH2 domain both at the concentration of 1 μM vs. a large excess of non-dansylated Gab2_448–460 (50 μM). Kinetic parameters extracted from data together with the calculated changes in activation and equilibrium free energies are reported in Table 1. Analysis of kinetic data highlights that T48S, L51A, and L59A variations cause a detectable decrease of the affinity of the domain for Gab2_448–460 of ∼10-fold, affecting both the kon and koff. […] Since L99 residue is part of the binding pocket, this dramatic effect on the binding affinity is expected.
# (§5) SH2 domains bind ligands with a phosphorylated tyrosine in their sequence. The N-SH2 domain of PI3K is known to recognize a specific consensus sequences that present a methionine in position +3 in respect to the phosphotyrosine (M457 in Gab2). […]
# [2] = target: T2, N-SH2 domain of PI3K, A30G variant (Homo sapiens, UniProt P27986, A351G); experiment: Stopped-flow binding kinetics, N-SH2 A30G; details: 10°C
# T2 construct: made in house
# Description: as §1, §2, §3, §4, §5
# [3] = target: T3, N-SH2 domain of PI3K, V80A variant (Homo sapiens, UniProt P27986, V401A); experiment: Stopped-flow binding kinetics, N-SH2 V80A; details: 10°C
# T3 construct: made in house
# Description: as §1, §2, §3, §4, §5
# [4] = target: T4, N-SH2 domain of PI3K, I62V variant (Homo sapiens, UniProt P27986, I383V); experiment: Stopped-flow binding kinetics, N-SH2 I62V; details: 10°C
# T4 construct: made in house
# Description: as §1, §2, §3, §4, §5
# [5] = target: T5, N-SH2 domain of PI3K, L75A variant (Homo sapiens, UniProt P27986, L396A); experiment: Stopped-flow binding kinetics, N-SH2 L75A; details: 10°C
# T5 construct: made in house
# Description: as §1, §2, §3, §4, §5
# [6] = target: T6, N-SH2 domain of PI3K, L59A variant (Homo sapiens, UniProt P27986, L380A); experiment: Stopped-flow binding kinetics, N-SH2 L59A; details: 10°C
# T6 construct: made in house
# Description: as §1, §2
# One of the aims of this study is to depict the molecular details of the interaction between the N-SH2 domain of PI3K and Gab2. […] To monitor binding by fluorescence, a dansyl group was added at the N-terminus of the peptide. The binding reaction was monitored by stopped-flow experiments following the change in FRET signal, taking advantage of the two Trp residues on the N-SH2 domain in positions 12 and 14 as fluorescence donor and the dansyl group on Gab2_448–460 as acceptor. […]
# with kon being the slope of the line and koff the intercept with the y-axis. […] Kinetic parameters extracted from data together with the calculated changes in activation and equilibrium free energies are reported in Table 1. […]
# [7] = target: T7, N-SH2 domain of PI3K, T33S variant (Homo sapiens, UniProt P27986, T354S); experiment: Stopped-flow binding kinetics, N-SH2 T33S; details: 10°C
# T7 construct: made in house
# Description: as §1, §2, §3, §4, §5
# [8] = target: T8, N-SH2 domain of PI3K, L104A variant (Homo sapiens, UniProt P27986, L425A); experiment: Stopped-flow binding kinetics, N-SH2 L104A; details: 10°C
# T8 construct: made in house
# Description: as §1, §2, §3, §4, §5
# [9] = target: T9, N-SH2 domain of PI3K, T29S variant (Homo sapiens, UniProt P27986, T350S); experiment: Stopped-flow binding kinetics, N-SH2 T29S; details: 10°C
# T9 construct: made in house
# Description: as §1, §2, §3, §4, §5
# [10] = target: T10, N-SH2 domain of PI3K, T76S variant (Homo sapiens, UniProt P27986, T397S); experiment: Stopped-flow binding kinetics, N-SH2 T76S; details: 10°C
# T10 construct: made in house
# Description: as §1, §2, §3, §4, §5
# [11] = target: T11, N-SH2 domain of PI3K, T50S variant (Homo sapiens, UniProt P27986, T371S); experiment: Stopped-flow binding kinetics, N-SH2 T50S; details: displacement experiment, pH 7.4, 300 mM NaCl, 10°C
# T11 construct: made in house
# Description: as §1, §2, §3, §4, §5
# [12] = displacement experiment, pH 7.4, 300 mM NaCl
# [13] = stopped-flow FRET, 1 μM dansylated peptide, 50 mM Hepes pH 7.4, 300 mM NaCl
# [14] = stopped-flow kinetics, pH 7.4, 300 mM NaCl
# T2 sequence (P27986 333-428 A351G): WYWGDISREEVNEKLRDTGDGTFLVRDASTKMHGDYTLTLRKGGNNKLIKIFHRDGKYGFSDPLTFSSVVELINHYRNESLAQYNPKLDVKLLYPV
# T7 sequence (P27986 333-428 T354S): as the sequence (P27986 333-428 A351G) above, with G19A, T22S counted along it
# T10 sequence (P27986 333-428 T397S): as the sequence (P27986 333-428 A351G) above, with G19A, T65S counted along it
# T8 sequence (P27986 333-428 L425A): as the sequence (P27986 333-428 A351G) above, with G19A, L93A counted along it
# T5 sequence (P27986 333-428 L396A): as the sequence (P27986 333-428 A351G) above, with G19A, L64A counted along it
# T9 sequence (P27986 333-428 T350S): as the sequence (P27986 333-428 A351G) above, with T18S, G19A counted along it
# T3 sequence (P27986 333-428 V401A): as the sequence (P27986 333-428 A351G) above, with G19A, V69A counted along it
# T6 sequence (P27986 333-428 L380A): as the sequence (P27986 333-428 A351G) above, with G19A, L48A counted along it
# T4 sequence (P27986 333-428 I383V): as the sequence (P27986 333-428 A351G) above, with G19A, I51V counted along it
# T1 sequence (P27986 333-428 V422A): as the sequence (P27986 333-428 A351G) above, with G19A, V90A counted along it
# T11 sequence (P27986 333-428 T371S): as the sequence (P27986 333-428 A351G) above, with G19A, T39S counted along it
compound,measurement,setting,value
CSCC[C@H](NC(=O)[C@@H]1CCCN1C(=O)[C@@H](NC(=O)[C@H](Cc1ccc(OP(=O)(O)O)cc1)NC(=O)[C@H](CC(N)=O)NC(=O)[C@H](CC(=O)O)NC(=O)[C@H](CCC(=O)O)NC(=O)[C@H](CO)NC(=O)[C@H](CC(N)=O)NC(=O)[C@@H](N)[C@@H](C)O)C(C)C)C(=O)N[C@@H](CC(N)=O)C(=O)N1CCC[C@H]1C(=O)NCC(=O)O [Gab2_448–460] (HELM PEPTIDE1{T.N.S.E.D.N.[O=C([C@H](Cc1ccc(OP(=O)(O)O)cc1)N[*:1])[*:2]].V.P.M.N.P.G}$$$$V2.0),koff,[1]; [12],7 ± 0.4 s⁻¹
same,kon,[1]; [13],1.34e+07 ± 400000 M⁻¹ s⁻¹
same,Kd,[1]; [14],500 ± 100 nM
same,koff,[2]; [12],3.7 ± 0.2 s⁻¹
same,kon,[2]; [13],2.92e+07 ± 2e+06 M⁻¹ s⁻¹
same,Kd,[2]; [14],100 ± 100 nM
same,koff,[3]; [12],4.4 ± 0.2 s⁻¹
same,kon,[3]; [13],1.6e+07 ± 1.2e+06 M⁻¹ s⁻¹
same,Kd,[3]; [14],300 ± 100 nM
same,koff,[4]; [12],4.5 ± 0.2 s⁻¹
same,kon,[4]; [13],1.55e+07 ± 1.4e+06 M⁻¹ s⁻¹
same,Kd,[4]; [14],300 ± 100 nM
same,koff,[5]; [12],6.1 ± 0.3 s⁻¹
same,kon,[5]; [13],8.1e+06 ± 1.1e+06 M⁻¹ s⁻¹
same,Kd,[5]; [14],800 ± 100 nM
same,koff,[6]; [12],21 ± 1 s⁻¹
same,kon,[6]; [13],6.7e+06 ± 1e+06 M⁻¹ s⁻¹
same,Kd,[6]; [14],3200 ± 200 nM
same,koff,[7]; [12],3.6 ± 0.2 s⁻¹
same,kon,[7]; [13],2.26e+07 ± 2.4e+06 M⁻¹ s⁻¹
same,Kd,[7]; [14],200 ± 100 nM
same,koff,[8]; [12],3.5 ± 0.2 s⁻¹
same,kon,[8]; [13],1.65e+07 ± 200000 M⁻¹ s⁻¹
same,Kd,[8]; [14],200 ± 100 nM
same,koff,[9]; [12],4.3 ± 0.2 s⁻¹
same,kon,[9]; [13],1.75e+07 ± 500000 M⁻¹ s⁻¹
same,Kd,[9]; [14],300 ± 100 nM
same,koff,[10]; [12],5.3 ± 0.3 s⁻¹
same,kon,[10]; [13],1.69e+07 ± 1.3e+06 M⁻¹ s⁻¹
same,Kd,[10]; [14],300 ± 100 nM
same,koff,[11],9.3 ± 0.5 s⁻¹
